The source of these data is the Kinase Knowledgebase extract (Sharma et al. 2016).

Molecules are shown by their SMILES. A value given as a limit tells only on which side of the number the result lay.

As a reminder, the IC50 is the concentration that gives 50% inhibition.

The target in one assay is PIK3CA (human) (UniProt P42336). As to the kind of experiment: Assessment of PIK3CA Kinase Activity.
The target in another assay is PIK3CD (Human) (UniProt O00329). As to the kind of experiment: Assessment of PIK3CD Kinase Activity.
Sequence of PIK3CD (Human) (O00329 whole entry, looked up): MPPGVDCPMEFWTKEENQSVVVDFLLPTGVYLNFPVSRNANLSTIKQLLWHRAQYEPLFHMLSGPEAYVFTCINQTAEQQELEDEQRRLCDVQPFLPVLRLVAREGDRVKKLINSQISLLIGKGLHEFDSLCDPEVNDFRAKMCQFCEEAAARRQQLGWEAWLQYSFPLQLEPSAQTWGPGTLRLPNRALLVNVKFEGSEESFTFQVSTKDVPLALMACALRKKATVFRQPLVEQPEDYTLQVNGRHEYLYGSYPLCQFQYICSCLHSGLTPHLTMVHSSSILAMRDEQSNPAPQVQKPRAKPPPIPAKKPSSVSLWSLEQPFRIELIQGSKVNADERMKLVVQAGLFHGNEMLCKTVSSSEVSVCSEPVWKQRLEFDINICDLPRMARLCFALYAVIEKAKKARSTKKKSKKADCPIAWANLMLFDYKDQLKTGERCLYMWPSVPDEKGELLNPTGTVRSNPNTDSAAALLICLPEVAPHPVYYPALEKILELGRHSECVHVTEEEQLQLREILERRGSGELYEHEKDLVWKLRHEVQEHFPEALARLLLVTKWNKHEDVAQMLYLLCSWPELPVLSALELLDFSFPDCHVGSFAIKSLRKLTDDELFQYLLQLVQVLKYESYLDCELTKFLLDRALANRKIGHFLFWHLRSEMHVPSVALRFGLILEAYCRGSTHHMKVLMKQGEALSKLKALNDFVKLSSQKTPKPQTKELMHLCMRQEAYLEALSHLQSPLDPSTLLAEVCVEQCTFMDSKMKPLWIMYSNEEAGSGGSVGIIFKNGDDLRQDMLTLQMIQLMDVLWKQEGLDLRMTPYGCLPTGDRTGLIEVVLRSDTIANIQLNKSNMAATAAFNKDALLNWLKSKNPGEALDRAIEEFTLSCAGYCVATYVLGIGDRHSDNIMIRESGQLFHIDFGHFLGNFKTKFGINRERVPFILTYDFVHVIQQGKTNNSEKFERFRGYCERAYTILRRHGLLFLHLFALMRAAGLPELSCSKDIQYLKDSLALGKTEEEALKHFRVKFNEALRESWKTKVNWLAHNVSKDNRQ
For another assay, the target named is PIK3CB (Human) (UniProt P42338). Nature of the assay: Assessment of PIK3CB Kinase Activity.
Sequence of PIK3CB (Human) (P42338 whole entry, looked up): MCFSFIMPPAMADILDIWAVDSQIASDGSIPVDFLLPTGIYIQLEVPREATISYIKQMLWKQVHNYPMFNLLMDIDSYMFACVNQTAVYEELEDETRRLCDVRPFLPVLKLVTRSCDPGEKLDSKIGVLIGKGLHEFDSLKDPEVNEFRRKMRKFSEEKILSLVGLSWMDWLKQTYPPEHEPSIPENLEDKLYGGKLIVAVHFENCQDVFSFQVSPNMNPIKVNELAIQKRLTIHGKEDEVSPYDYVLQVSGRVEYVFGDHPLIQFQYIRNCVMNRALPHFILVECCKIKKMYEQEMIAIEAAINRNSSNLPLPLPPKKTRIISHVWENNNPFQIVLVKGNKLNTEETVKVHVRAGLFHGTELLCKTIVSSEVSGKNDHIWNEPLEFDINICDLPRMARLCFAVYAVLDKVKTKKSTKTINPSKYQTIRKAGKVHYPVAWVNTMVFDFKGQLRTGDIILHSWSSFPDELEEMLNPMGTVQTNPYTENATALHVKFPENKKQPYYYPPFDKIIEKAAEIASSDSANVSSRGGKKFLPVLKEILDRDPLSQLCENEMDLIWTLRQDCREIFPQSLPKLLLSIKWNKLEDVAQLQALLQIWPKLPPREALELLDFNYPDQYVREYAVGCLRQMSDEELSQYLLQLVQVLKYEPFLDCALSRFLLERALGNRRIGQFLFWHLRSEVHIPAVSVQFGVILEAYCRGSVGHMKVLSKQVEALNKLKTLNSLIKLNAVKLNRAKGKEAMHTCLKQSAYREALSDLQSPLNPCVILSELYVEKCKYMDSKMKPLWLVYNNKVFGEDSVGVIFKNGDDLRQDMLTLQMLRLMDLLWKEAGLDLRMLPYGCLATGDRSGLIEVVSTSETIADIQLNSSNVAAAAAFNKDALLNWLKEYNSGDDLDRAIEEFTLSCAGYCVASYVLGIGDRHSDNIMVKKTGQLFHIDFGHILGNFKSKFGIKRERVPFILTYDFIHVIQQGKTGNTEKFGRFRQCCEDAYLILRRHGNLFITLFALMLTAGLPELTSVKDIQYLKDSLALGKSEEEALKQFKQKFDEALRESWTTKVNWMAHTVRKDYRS

Sequence of PIK3CA (human) (P42336 whole entry, looked up): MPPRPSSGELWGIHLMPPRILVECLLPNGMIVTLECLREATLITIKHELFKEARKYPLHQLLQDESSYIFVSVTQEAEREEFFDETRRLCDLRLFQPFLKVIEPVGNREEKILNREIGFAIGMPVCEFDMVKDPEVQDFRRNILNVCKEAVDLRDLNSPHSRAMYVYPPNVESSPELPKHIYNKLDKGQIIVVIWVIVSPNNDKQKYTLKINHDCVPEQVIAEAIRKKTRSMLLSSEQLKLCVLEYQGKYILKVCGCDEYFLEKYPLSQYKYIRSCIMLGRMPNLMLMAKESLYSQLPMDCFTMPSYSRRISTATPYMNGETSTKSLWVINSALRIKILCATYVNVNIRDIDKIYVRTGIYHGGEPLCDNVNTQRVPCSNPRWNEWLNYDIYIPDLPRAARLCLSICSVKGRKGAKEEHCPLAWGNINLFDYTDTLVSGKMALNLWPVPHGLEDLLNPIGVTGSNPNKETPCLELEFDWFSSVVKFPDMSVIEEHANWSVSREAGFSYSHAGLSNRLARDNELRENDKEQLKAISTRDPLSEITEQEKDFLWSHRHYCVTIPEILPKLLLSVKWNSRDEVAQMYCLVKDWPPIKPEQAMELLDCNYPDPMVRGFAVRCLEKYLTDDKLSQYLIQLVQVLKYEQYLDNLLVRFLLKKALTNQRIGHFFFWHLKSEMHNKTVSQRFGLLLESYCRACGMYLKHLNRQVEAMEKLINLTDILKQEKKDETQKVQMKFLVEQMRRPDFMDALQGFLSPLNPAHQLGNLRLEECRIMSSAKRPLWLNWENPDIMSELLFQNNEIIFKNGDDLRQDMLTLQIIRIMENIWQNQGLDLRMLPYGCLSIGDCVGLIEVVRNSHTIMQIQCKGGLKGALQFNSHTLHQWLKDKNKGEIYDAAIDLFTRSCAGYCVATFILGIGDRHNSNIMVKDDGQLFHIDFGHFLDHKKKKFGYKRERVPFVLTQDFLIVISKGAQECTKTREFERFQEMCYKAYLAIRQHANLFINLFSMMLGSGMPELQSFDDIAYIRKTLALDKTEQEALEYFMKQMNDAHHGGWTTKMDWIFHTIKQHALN

On to `FC(F)c1nc2ccccc2n1-c1nc(Nc2ccncn2)nc(N2CCOCC2)n1`, for which the IC50 against PIK3CA (human) and against PIK3CD (Human) was less than 0.1 µM in each case.

On to `COc1cccc2c1nc(C(F)F)n2-c1nc(N2CCOCC2)nc(N(C)c2cncnc2)n1`, for which the 50% inhibitory concentration (IC50) at PIK3CA (human) and against PIK3CD (Human) was less than 0.1 µM throughout.

On to `FC(F)c1nc2ccccc2n1-c1nc(Nc2cccnc2)nc(N2CCOCC2)n1`, for which the IC50 against PIK3CA (human), on PIK3CB (Human) and at PIK3CD (Human) was less than 0.1 µM in each case.

Take `COc1cc(Nc2nc(N3CCOCC3)nc(-n3c(C(F)F)nc4c(OC)cccc43)n2)ncn1`: the IC50 at PIK3CA (human) is less than 0.1 µM; against PIK3CB (Human), 0.1 to 1 µM; against PIK3CD (Human), less than 0.1 µM.

In the case of `COc1ccncc1Nc1nc(N2CCOCC2)nc(-n2c(C(F)F)nc3c(OC)cccc32)n1`, the IC50 is less than 0.1 µM against PIK3CA (human), 0.1 to 1 µM against PIK3CB (Human) and less than 0.1 µM on PIK3CD (Human).

Turning to `FC(F)c1nc2ccccc2n1-c1nc(Nc2cncnc2)nc(N2CCOCC2)n1`, the 50% inhibitory concentration (IC50) on PIK3CA (human) was less than 0.1 µM; against PIK3CB (Human) it was 0.1 to 1 µM; at PIK3CD (Human), less than 0.1 µM.

`CSc1nc2ccccc2n1-c1nc(Nc2cccnc2)nc(N2CCOCC2)n1` displayed a half-maximal inhibitory concentration (IC50) against PIK3CD (Human) of 0.1 to 1 µM.

On to `FC(F)c1nc2ccccc2n1-c1nc(Nc2cnccn2)nc(N2CCOCC2)n1`, for which the IC50 on PIK3CA (human) and at PIK3CD (Human) was less than 0.1 µM each time.

`FC(F)c1nc2ccccc2n1-c1nc(Nc2ncccn2)nc(N2CCOCC2)n1` had a half-inhibitory concentration (IC50) against PIK3CA (human) of 0.1 to 1 µM.

On to `FC(F)c1nc2ccccc2n1-c1nc(NCc2cccnc2)nc(N2CCOCC2)n1`, for which the IC50 at PIK3CA (human) was 0.1 to 1 µM; at PIK3CB (Human) it was 0.1 to 1 µM; against PIK3CD (Human), less than 0.1 µM.

Regarding `COc1cccc2c1nc(C(F)F)n2-c1nc(N2CCOCC2)nc(N(C)c2cccnc2)n1`, the half-inhibitory concentration (IC50) against PIK3CA (human), against PIK3CB (Human) and at PIK3CD (Human) was less than 0.1 µM throughout.

Consider `COc1ccc(Nc2nc(N3CCOCC3)nc(-n3c(C(F)F)nc4c(OC)cccc43)n2)nn1`, for which the IC50 against PIK3CA (human) was less than 0.1 µM; against PIK3CB (Human), 0.1 to 1 µM; on PIK3CD (Human), less than 0.1 µM.

On to `COc1cccc2c1nc(C(F)F)n2-c1nc(N2CCOCC2)c2ncn(-c3cncnc3)c2n1`, for which the IC50 on PIK3CA (human) and at PIK3CD (Human) was less than 0.1 µM each time.

With `COc1cccc2c1nc(C(F)F)n2-c1nc(Nc2cccnc2)nc(N2CCOCC2)n1`, the concentration for half-maximal inhibition (IC50) against PIK3CA (human) was less than 0.1 µM; against PIK3CB (Human), 0.1 to 1 µM; against PIK3CD (Human) it was less than 0.1 µM.

On to `CS(=O)(=O)c1nc2ccccc2n1-c1nc(Nc2cccnc2)nc(N2CCOCC2)n1`, for which the figures for the half-inhibitory concentration (IC50) against PIK3CA (human), against PIK3CB (Human) and against PIK3CD (Human) were 0.1 to 1 µM, 0.1 to 1 µM and less than 0.1 µM, respectively.

As for `COc1cccc2c1nc(C(F)F)n2-c1nc(Nc2cnc(N(C)CCN(C)C)nc2)nc(N2CCOCC2)n1`, the IC50 against PIK3CA (human) and on PIK3CD (Human) was less than 0.1 µM throughout.

For the compound `COc1cccc2c1nc(C(F)F)n2-c1nc(-c2cncnc2)cc(N2CCOCC2)n1`, the IC50 against PIK3CA (human) is less than 0.1 µM; at PIK3CD (Human), 0.1 to 1 µM.

As for `FC(F)c1nc2ccccc2n1-c1nc(Sc2ccccc2)nc(N2CCOCC2)n1`, the half-inhibitory concentration (IC50) at PIK3CA (human) and at PIK3CB (Human) was more than 10 µM in each case.

For the compound `COc1cccc2c1nc(C(F)F)n2-c1nc(Nc2ccc(N(C)C)nc2)nc(N2CCOCC2)n1`, the IC50 against PIK3CA (human) was less than 0.1 µM; against PIK3CB (Human), 0.1 to 1 µM; against PIK3CD (Human) it was less than 0.1 µM.

In the case of `FC(F)c1nc2ccccc2n1-c1nc(-c2cccnc2)nc(N2CCOCC2)n1`, the figures for the IC50 against PIK3CA (human), at PIK3CB (Human) and against PIK3CD (Human) were less than 0.1 µM, 0.1 to 1 µM and less than 0.1 µM, respectively.

For the compound `COc1cccc2c1nc(C(F)F)n2-c1nc(N2CCOCC2)nc(-n2cccn2)n1`, the half-maximal inhibitory concentration (IC50) on PIK3CA (human) and at PIK3CD (Human) was less than 0.1 µM in each case.

Consider `FC(F)c1nc2ccccc2n1-c1nc(-c2cncnc2)cc(N2CCOCC2)n1`, for which the half-maximal inhibitory concentration (IC50) at PIK3CA (human) and on PIK3CD (Human) was 0.1 to 1 µM in each case.

Consider `CNc1ccc(Nc2nc(N3CCOCC3)nc(-n3c(C(F)F)nc4c(OC)cccc43)n2)cn1`, for which the half-maximal inhibitory concentration (IC50) is less than 0.1 µM against PIK3CA (human), 0.1 to 1 µM against PIK3CB (Human) and less than 0.1 µM on PIK3CD (Human).

As to `FC(F)c1nc2ccccc2n1-c1nc(Nc2cnc3ccccc3c2)nc(N2CCOCC2)n1`, the IC50 against PIK3CA (human) and at PIK3CD (Human) was 0.1 to 1 µM throughout.

`FC(F)c1nc2ccccc2n1-c1nc(Nc2ccncc2)nc(N2CCOCC2)n1`: the IC50 was less than 0.1 µM against PIK3CA (human), 0.1 to 1 µM on PIK3CB (Human) and less than 0.1 µM against PIK3CD (Human).

As to `COc1cccc2c1nc(C(F)F)n2-c1nc(-c2ccc(N)nc2)nc(N2CCOCC2)n1`, the IC50 on PIK3CA (human) and against PIK3CD (Human) was less than 0.1 µM in each case.

Turning to `CN(c1cncnc1)c1nc(N2CCOCC2)nc(-n2c(C(F)F)nc3ccccc32)n1`, the half-inhibitory concentration (IC50) at PIK3CA (human) and against PIK3CD (Human) was less than 0.1 µM throughout.

As for `COc1cccc2c1nc(C(F)F)n2-c1nc(Nc2cncnc2)nc(N2CCOCC2)n1`, the IC50 on PIK3CA (human) is less than 0.1 µM; against PIK3CB (Human) it was 0.1 to 1 µM; against PIK3CD (Human) it was less than 0.1 µM.

Consider `COc1cc(N)cc2c1nc(C(F)F)n2-c1nc(-c2cccnc2)cc(N2CCOCC2)n1`, for which the concentration for half-maximal inhibition (IC50) at PIK3CA (human) and on PIK3CD (Human) was less than 0.1 µM throughout.
